Laboratory results: ChEMBL document CHEMBL3526001, “Attenuation of intestinal absorption by major efflux transporters: quantitative tools and strategies using a Caco-2 model” (Drug Metab Dispos, 2011)
Numbered stars: 1 amine (or outer) side, 2 acyl side, 3 side chain; on linkers, the order of the positions; unused ones are H or OH. Bridge positions count the residues as written; N and C are the ends. Square brackets hold non-standard residues; d marks the D form. Peptide text beside a SMILES is read from it. I, II: the chains in the order shown. Actinocin(9to1) = Cc1c2oc3c(C)ccc(C(=O)[*:1])c3nc-2c(C(=O)[*:2])c(N)c1=O; NMeV = CN[C@H](C(=O)O)C(C)C; Sar = CNCC(=O)O

Tests used:
[1] = human, caco-2, 2 h, 10 µM
MDCK [2] = test: Efflux ratio of permeability from basolateral to apical over apical to basolateral side of MDCK cells expressing MDR1; assay type: ADME, cell-based, Canis lupus familiaris; conditions: dog
clinical = conditions: human, in vivo
Description: Fraction absorbed in human

[3] = human, caco-2, 2 h, 10 µM; remark: listed apart in the source
P-gp = test: in vitro; conditions: human
in vitro [4] = conditions: human, Caco-2
Intestine = test: Ratio of intestine AUC in po dosed mdr1 knock out mouse to intestine AUC in po dosed wild type mouse; assay type: ADME, organism-based; conditions: in vivo
in vitro [5] = conditions: human, Caco-2; remark: listed apart in the source
in vitro [6] = conditions: human, Caco-2; remark: listed apart in the source
MDCK [7] = test: Efflux ratio of permeability from basolateral to apical over apical to basolateral side of MDCK cells expressing BCRP; assay type: ADME, cell-based, Canis lupus familiaris; conditions: dog
Homo sapiens = species on record: Homo sapiens; conditions: in vivo
Description: Fraction absorbed in human

[8] = biological target: ATP-binding cassette sub-family C member 2 (Homo sapiens, UniProt Q92887); test: Fold activity change at MRP2 ATPase (unknown origin) relative to control; assay type: ADME
ATP-binding cassette sub-family C member 2, sequence (Q92887 whole entry): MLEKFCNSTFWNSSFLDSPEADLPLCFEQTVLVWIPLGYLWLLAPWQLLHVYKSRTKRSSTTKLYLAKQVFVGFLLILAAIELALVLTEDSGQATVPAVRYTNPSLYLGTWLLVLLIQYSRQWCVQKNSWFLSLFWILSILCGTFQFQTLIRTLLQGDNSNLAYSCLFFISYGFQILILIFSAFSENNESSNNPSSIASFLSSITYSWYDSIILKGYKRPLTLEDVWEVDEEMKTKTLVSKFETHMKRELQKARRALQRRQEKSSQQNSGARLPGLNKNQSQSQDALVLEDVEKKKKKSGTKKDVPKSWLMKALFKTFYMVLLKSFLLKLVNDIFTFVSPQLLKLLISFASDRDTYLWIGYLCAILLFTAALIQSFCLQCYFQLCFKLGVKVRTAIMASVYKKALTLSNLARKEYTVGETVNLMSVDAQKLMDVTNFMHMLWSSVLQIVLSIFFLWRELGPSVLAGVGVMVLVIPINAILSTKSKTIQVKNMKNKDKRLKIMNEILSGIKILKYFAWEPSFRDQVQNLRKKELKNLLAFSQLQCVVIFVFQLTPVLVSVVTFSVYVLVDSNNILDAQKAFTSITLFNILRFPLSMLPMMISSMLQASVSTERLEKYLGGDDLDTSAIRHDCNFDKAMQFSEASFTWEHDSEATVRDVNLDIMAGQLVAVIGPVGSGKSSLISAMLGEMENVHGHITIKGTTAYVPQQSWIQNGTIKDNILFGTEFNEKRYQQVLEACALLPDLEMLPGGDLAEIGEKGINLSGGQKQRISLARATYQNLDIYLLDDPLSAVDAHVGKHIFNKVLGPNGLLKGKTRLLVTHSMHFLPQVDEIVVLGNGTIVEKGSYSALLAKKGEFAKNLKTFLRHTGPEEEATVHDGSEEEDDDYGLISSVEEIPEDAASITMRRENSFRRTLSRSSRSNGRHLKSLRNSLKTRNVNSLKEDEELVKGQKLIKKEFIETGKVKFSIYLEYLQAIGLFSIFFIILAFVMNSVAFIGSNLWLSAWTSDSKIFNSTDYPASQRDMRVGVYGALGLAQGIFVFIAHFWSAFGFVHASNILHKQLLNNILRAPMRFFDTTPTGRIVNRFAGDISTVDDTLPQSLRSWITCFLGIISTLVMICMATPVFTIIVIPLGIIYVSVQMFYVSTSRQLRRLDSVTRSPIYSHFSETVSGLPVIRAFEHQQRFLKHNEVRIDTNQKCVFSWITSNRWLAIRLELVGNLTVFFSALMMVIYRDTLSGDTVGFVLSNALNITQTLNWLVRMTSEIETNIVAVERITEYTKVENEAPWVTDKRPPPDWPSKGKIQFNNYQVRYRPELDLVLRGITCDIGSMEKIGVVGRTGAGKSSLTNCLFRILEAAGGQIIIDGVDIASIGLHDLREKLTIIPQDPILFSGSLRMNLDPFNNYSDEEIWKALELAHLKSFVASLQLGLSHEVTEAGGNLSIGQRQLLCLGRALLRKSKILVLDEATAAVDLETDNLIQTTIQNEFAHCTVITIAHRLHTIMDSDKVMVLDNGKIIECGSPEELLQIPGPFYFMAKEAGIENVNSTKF

Compound	Papp [1] [×10⁻⁶ cm/s]	Ratio (MDCK [2])	Fa (clinical) [%]	Papp [3] [×10⁻⁶ cm/s]	efflux ratio at 2 h, 10 µM (P-gp; Caco-2, with LY335979 1 uM)	Papp B→A at 2 h, 10 µM (in vitro [4]) [×10⁻⁶ cm/s]	Ratio AUC (Intestine)	efflux ratio at 2 h, 10 µM (in vitro [5])	Papp A→B at 2 h, 10 µM (in vitro [6]) [×10⁻⁶ cm/s]	efflux ratio at 2 h, 10 µM (P-gp; Caco-2)	Ratio (MDCK [7])	Fabs (Homo sapiens) [%]	fold change (FC) [8]
CC(C)n1c(/C=C/C(O)CC(O)CC(=O)O)c(-c2ccc(F)cc2)c2ccccc21 (centres undefined) [FLUVASTATIN]	1.5	4.9	98	15.3	12.3	–	–	–	–	–	–	–	–
CN/C(=N/CCSCc1nc[nH]c1C)NC#N [CIMETIDINE]	–	–	60	–	–	4.8	0.95	3.5	1.4	1.8	–	–	–
COc1ccc([C@@H]2Sc3ccccc3N(CCN(C)C)C(=O)[C@@H]2OC(C)=O)cc1 [DILTIAZEM]	–	0.8	–	–	0.4	8.3	–	0.7	12	–	–	–	–
CC[C@]1(O)C[C@@H]2CN(CCc3c([nH]c4ccccc34)[C@@](C(=O)OC)(c3cc4c(cc3OC)N(C)[C@H]3[C@@](O)(C(=O)OC)[C@H](OC(C)=O)[C@]5(CC)C=CCN6CC[C@]43[C@@H]65)C2)C1 [VINBLASTINE]	–	–	5	–	–	11.9	0.7	13.5	1	2	1.8	–	–
COc1cccc2c1C(=O)c1c(O)c3c(c(O)c1C2=O)C[C@@](O)(C(C)=O)C[C@@H]3O[C@H]1C[C@H](N)[C@H](O)[C@H](C)O1 [DAUNORUBICIN]	–	–	10	–	–	–	3	–	–	0.4	–	–	–
COc1cc([C@@H]2c3cc4c(cc3[C@@H](O[C@@H]3O[C@@H]5CO[C@@H](C)O[C@H]5[C@H](O)[C@H]3O)[C@H]3COC(=O)[C@H]23)OCO4)cc(OC)c1O [ETOPOSIDE]	–	11	25	–	–	3	3.3	4.8	0.5	1.4	9.7	–	–
IVERMECTIN	–	–	–	–	–	–	–	–	–	–	–	56	–
C[C@H]1O[C@@H](O[C@H]2[C@@H](O)C[C@H](O[C@H]3[C@@H](O)C[C@H](O[C@H]4CC[C@@]5(C)[C@H](CC[C@@H]6[C@@H]5C[C@@H](O)[C@]5(C)[C@@H](C7=CC(=O)OC7)CC[C@]65O)C4)O[C@@H]3C)O[C@@H]2C)C[C@H](O)[C@@H]1O [DIGOXIN]	–	27	68	–	–	–	12	7.5	–	1	1.3	–	–
CC[C@@]1(O)C(=O)OCc2c1cc1n(c2=O)Cc2cc3c(CN(C)C)c(O)ccc3nc2-1 [TOPOTECAN]	0.9	–	30	7.1	13.1	–	–	6.9	–	–	2.4	–	–
Cc1ccccc1N1C(=O)c2cc(S(N)(=O)=O)c(Cl)cc2NC1C (centres undefined) [METOLAZONE]	1.8	–	–	9.6	2.1	–	–	3.3	–	–	5.1	–	–
C=CCN1CC[C@]23c4c5ccc(O)c4O[C@H]2C(=O)CC[C@@]3(O)[C@H]1C5 [NALOXONE]	–	0.7	–	–	0.5	10.3	–	0.5	21.5	–	–	–	–
CN(Cc1cnc2nc(N)nc(N)c2n1)c1ccc(C(=O)N[C@@H](CCC(=O)O)C(=O)O)cc1 [METHOTREXATE]	–	–	–	–	–	1.1	–	0.9	1.2	–	–	–	-0.2
CC[C@H]1OC(=O)[C@H](C)[C@@H](O[C@H]2C[C@@](C)(OC)[C@@H](O)[C@H](C)O2)[C@H](C)[C@@H](O[C@@H]2O[C@H](C)C[C@H](N(C)C)[C@H]2O)[C@](C)(O)C[C@@H](C)C(=O)[C@H](C)[C@@H](O)[C@]1(C)O [ERYTHROMYCIN]	–	–	35	–	–	3	–	7.1	0.3	0.5	8.5	–	1
COc1cc2c(c(OC)c1OC)-c1ccc(OC)c(=O)cc1[C@@H](NC(C)=O)CC2 [COLCHICINE]	–	–	44	–	–	–	–	4.3	–	0.8	–	–	-0.4
O=c1[nH]c2ccccc2n1CCCN1CCC(n2c(=O)[nH]c3cc(Cl)ccc32)CC1 [DOMPERIDONE]	–	–	93	–	–	15.4	–	–	5.2	–	–	–	3
O=C(O)c1cc(/N=N/c2ccc(S(=O)(=O)Nc3ccccn3)cc2)ccc1O [SULFASALAZINE]	–	–	–	–	–	–	–	16.9	–	32.2	–	–	9
Cc1c2oc3c(C)ccc(C(=O)N[C@@H]4C(=O)N[C@H](C(C)C)C(=O)N5CCC[C@H]5C(=O)N(C)CC(=O)N(C)[C@@H](C(C)C)C(=O)O[C@@H]4C)c3nc-2c(C(=O)N[C@@H]2C(=O)N[C@H](C(C)C)C(=O)N3CCC[C@H]3C(=O)N(C)CC(=O)N(C)[C@@H](C(C)C)C(=O)O[C@@H]2C)c(N)c1=O [DACTINOMYCIN] (I: T[dV]P[Sar][NMeV] / II: T[dV]P[Sar][NMeV]; ester I:1-I:C, II:1-II:C; linker I:N-II:N via Actinocin(9to1))	0.8	–	5	4.5	4	–	–	6.4	–	–	–	–	–
